Data on four compounds can be found in patent US9173836B2, “Pharmaceutical preparations for treatments of diseases and disorders of the breast” (FemmeParma Holding Company, Inc., priority 2003, dated 2015).

Like-named read-outs stand apart in the source and are kept apart here. Marks after values point to notes of the source that are not given here.

Series [1] has as its system women treated for cyclical mastalgia. As to conditions: in vivo; cited from earlier work.
For series [2] the following is noted: Formulations 1 and 2.
Series [3] is described as follows: in vitro. As to conditions: for recovery at 48 h, 100 µM: % Recovery. Here is the method: Dermatomed human abdominal skin was obtained from Asterand Inc. (Detroit, Mich.). The donor was a person. […] After thawing at room temperature, the skin was soaked in saline for 30 minutes, and then cut to the appropriate size (approximately 4 cm^2) necessary. Excess moisture and saline were wiped off. The tissue was immediately transferred to the Franz-cell diffusion chamber and clamped between the donor and receiver chambers. The exposed surface area of the Franz-cell diffusion chamber was 1.77 cm^2. The receiver compartment was filled with 8 mL KRB buffer. The reservoir also contained a stirring bar to mix the reservoir contents. […] The temperature was set to maintain the tissue surface at 32° C.
Samples (1.0 mL) were taken from the receiver compartment at 0, 2, 4, 8, 24, and 48 hours for formulation assays and the control assay. After taking samples, an equal volume of receiver KRB buffer was added back to replace the buffer removed. For the control assay, 200 μl of dosing solution (prior to 0 hours) was taken from the container and 200 μl of 0 and 48 hours samples were taken from the donor side of the chamber.
The liquid chromatography phase was carried out using a Keystone Hypersil BDC C12 30×2.0 mm i.d., 3 μm, with guard column and 25 mM ammonium formate buffer (pH 3.5), where Aqueous Reservoir (A) was 90% water, 10% buffer, and Organic Reservoir (B) was 90% acetonitrile, 10% buffer. A flow rate of 300 μL/minute was applied to a gradient program of 0.0 min: 100% A, 0% B; 1.5 min: 0% A, 100% B; 2.0 min: 0% A, 100% B; 2.1 min: 100% A, 0% B; 3.5 min: 100% A, 0% B; for a total run time of 3.5 minutes (Autosampler: 30 μL injection volume; Autosampler Wash: water/acetonitrile/2-propanol:1/1/1; with 0.2% formic acid). Mass spectroscopy was carried out using a PE SCIEX API 3000 (interface: turbo ionspray; mode: multiple reaction monitoring; method: 3.5 minute duration).
The following calculations were performed: Flux=d[(Cr×Vr)/A]/dt

The format of series [4] is in vitro ADME. As to conditions: 10 μg/ml, pH 7.4. Here is the method: The concentration in the apparatus was determined after 0 and 180 minutes of incubation to mimic a skin permeation experiment. […] The experiment was done in triplicate.

For the compound `CC(C)C[C@H]1C(=O)N2CCC[C@H]2[C@]2(O)O[C@](NC(=O)[C@@H]3C=C4c5cccc6[nH]c(Br)c(c56)C[C@H]4N(C)C3)(C(C)C)C(=O)N12` [Bromocriptine], in series [1], the “Women complaining of more severe side effects” value was 10% and the “Women reporting mild side effects (nausea, dizziness, headaches, irritability)” value is listed as 30%.

For orientation: Papp means the rate of passage across a membrane or cell layer, normalised by area and donor concentration. High values mean ready permeation, low ones poor permeation. For the compound lucifer yellow, in series [2], the “Lucifer yellow permeation (membrane integrity)” value was “no permeation of Lucifer yellow detectable until after 8 or 24 hours of incubation”. Further, in series [3], the “% Recovery, Mean ± S.D.” value was determined as 85.3 ± 5.4%; the apparent permeability coefficient (Papp) is 0 ×10⁻⁶ cm/s; the “Papp, Mean ± S.D.” value is listed as 0 ± 0 ×10^−6 cm/s; the “Tissue integrity marker in receiver buffer” value is on record as “below lower limit of quantification (LLOQ) in all receiver buffer”.

Take `C#C[C@]1(O)CC[C@H]2[C@@H]3CCC4=Cc5oncc5C[C@]4(C)[C@H]3CC[C@@]21C` [Danazol, danazol]: the “Average Measured Concentration ± STD (N = 3)” value is 8.9 ± 0.3 µg/mL in series [4] (0 min) and 8.5 ± 0.3 µg/mL in series [4] (180 min).

`Cn1c(=O)c2c(ncn2C)n(C)c1=O` [Caffeine, caffeine]: the “Dosing solution concentration, Mean ± S.D.” value in series [3] (100 μM) worked out at 108.7 ± 1.5 µM. In series [3] (female, human, 0 h, 100 μM), the “Cumulative Receiver Concentration” value is 0* μM. Moreover, the “Cumulative Receiver Concentration, Mean ± S.D.” value stood at 0 ± 0 µM in series [3] (female, human, 0 h, 100 μM); 0.009 ± 0.015 µM in series [3] (female, human, 2 h, 100 μM); 0.018 ± 0.030 µM in series [3] (female, human, 4 h, 100 μM); 0.050 ± 0.075 µM in series [3] (female, human, 8 h, 100 μM); 0.196 ± 0.254 µM in series [3] (female, human, 24 h, 100 μM); 0.390 ± 0.469 µM in series [3] (female, human, 48 h, 100 μM). Besides, the “Donor concentration, Mean ± S.D.” value in series [3] (female, human, 0 h, 100 μM) is 102.7 ± 0.6 µM; in series [3] (female, human, 48 h, 100 μM), 102.4 ± 11.2 µM. The recovery at 48 h, 100 µM was 104% in series [3] (female, human) and 95.6 ± 8.7% in series [3] (female, human, Mean ± S.D.).
